Results on 18 molecules are retold here after US11548875B2, “Inhibitor compounds for male contraception” (University of Washington, priority 2018, dated 2023).

One assay addresses T1, ALDH2 (Homo sapiens, UniProt P05091).
T1 construct: histidine-tag (N); made in house; host or cells: bacterial expression (pETite vector, IPTG induction)
T1 sequence (P05091 18-517): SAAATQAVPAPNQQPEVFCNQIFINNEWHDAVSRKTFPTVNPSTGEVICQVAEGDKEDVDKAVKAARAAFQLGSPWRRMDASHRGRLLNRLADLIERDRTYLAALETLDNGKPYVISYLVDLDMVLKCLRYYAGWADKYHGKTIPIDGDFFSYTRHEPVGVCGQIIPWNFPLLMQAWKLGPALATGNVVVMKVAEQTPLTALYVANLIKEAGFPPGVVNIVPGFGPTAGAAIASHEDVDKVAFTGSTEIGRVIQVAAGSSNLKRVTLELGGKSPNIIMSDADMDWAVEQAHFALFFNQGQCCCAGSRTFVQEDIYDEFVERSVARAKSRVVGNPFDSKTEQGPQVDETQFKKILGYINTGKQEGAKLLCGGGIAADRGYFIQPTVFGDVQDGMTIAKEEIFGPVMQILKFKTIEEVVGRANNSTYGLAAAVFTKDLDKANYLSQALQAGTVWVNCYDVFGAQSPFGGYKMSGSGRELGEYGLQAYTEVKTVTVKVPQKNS
The assay can be described thus: Purified ALDH2 assay with propanal, NADH fluorescence. It is filed as biochemical. Particulars: purified enzyme. The text has this: ALDHs were cloned into bacterial expression vector for in vitro enzyme assays and into mammalian expression vectors for cell-based enzyme assays. Human ALDH1A1 cDNA and human ALDH2 cDNA were purchased from OriGene (SC321535) and Open Biosystems (MHS4771-99611182), respectively. and human ALDH1A2 cDNA was cloned from human testis RNA using RT-PCR (Population Division of the Department of Economic and Social Affairs of the United Nations Secretariat. World Population prospects: the 2008 revision. Available at http://www.un.org/esa/population/ (Retrieved Sep. 30, 2011)). For bacterial expression, an open reading frame of ALDH1A1 and ALDH2 were subcloned into the pETite vector (Lucigen) with a 5′ histidine-tag and that of ALDH1A2 into a pET28 vector (Novagen) with a 3′ histidine-tag. Correct frame and sequences were verified through DNA sequencing (UW DNA sequencing facility). ALDHs were induced with 1 mM IPTG and purified using His.Bind resin (Novagen, San Diego, Calif.) and stored in a buffer containing 20 mM Hepes (pH 8), 150 mM KCl and 1 mM EDTA as previously described (Fierce, Y., de Morais Vieira, M., Piantedosi, R., Wyss, A., Blaner, W. S., and Paik, J. (2008) In vitro and in vivo characterization of retinoid synthesis from beta-carotene. Archives of biochemistry and biophysics 472, 126-138). […]
For this, 2 μg purified ALDH2, 20 μM propanal and varying concentrations of inhibitors were incubated at room temperature. Enzyme activity was determined by measuring fluorescence of NADH (Ex, 350 nm/Em, 460 nm) using a Victor3 plate reader (PerkinElmer), and initial velocity was calculated from two consecutive readings over 1 minute.

The target of a further assay is T2, ALDH1A2 (Homo sapiens, UniProt O94788).
T2 sequence (O94788 1-518): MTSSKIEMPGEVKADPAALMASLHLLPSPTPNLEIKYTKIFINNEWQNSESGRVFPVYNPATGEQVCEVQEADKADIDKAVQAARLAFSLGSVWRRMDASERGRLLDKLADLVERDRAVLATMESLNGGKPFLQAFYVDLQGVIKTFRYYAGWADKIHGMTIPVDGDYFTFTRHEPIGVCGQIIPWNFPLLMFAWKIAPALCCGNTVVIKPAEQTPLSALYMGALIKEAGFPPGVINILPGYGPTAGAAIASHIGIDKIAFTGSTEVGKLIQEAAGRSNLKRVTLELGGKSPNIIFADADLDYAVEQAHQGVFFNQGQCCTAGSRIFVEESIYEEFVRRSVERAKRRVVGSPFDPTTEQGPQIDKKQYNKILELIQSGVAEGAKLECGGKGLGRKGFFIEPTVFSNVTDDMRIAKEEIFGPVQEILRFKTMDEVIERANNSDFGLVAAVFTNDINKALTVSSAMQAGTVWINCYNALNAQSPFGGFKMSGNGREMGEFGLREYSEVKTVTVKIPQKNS
The assay can be described thus: Inhibitor screening using purified enzymes: ALDH1A2 activity, retinoic acid production by HPLC (5 uM initial screen, then IC50). It is filed as biochemical. Also on record: histidine-tag (C); made in house; host or cells: bacterial expression (pET28 vector, IPTG induction). Particulars: purified enzyme. The text has this: ALDHs were cloned into bacterial expression vector for in vitro enzyme assays and into mammalian expression vectors for cell-based enzyme assays. Human ALDH1A1 cDNA and human ALDH2 cDNA were purchased from OriGene (SC321535) and Open Biosystems (MHS4771-99611182), respectively. and human ALDH1A2 cDNA was cloned from human testis RNA using RT-PCR (Population Division of the Department of Economic and Social Affairs of the United Nations Secretariat. World Population prospects: the 2008 revision. Available at http://www.un.org/esa/population/ (Retrieved Sep. 30, 2011)). For bacterial expression, an open reading frame of ALDH1A1 and ALDH2 were subcloned into the pETite vector (Lucigen) with a 5′ histidine-tag and that of ALDH1A2 into a pET28 vector (Novagen) with a 3′ histidine-tag. Correct frame and sequences were verified through DNA sequencing (UW DNA sequencing facility). ALDHs were induced with 1 mM IPTG and purified using His.Bind resin (Novagen, San Diego, Calif.) and stored in a buffer containing 20 mM Hepes (pH 8), 150 mM KCl and 1 mM EDTA as previously described (Fierce, Y., de Morais Vieira, M., Piantedosi, R., Wyss, A., Blaner, W. S., and Paik, J. (2008) In vitro and in vivo characterization of retinoid synthesis from beta-carotene. Archives of biochemistry and biophysics 472, 126-138).
ALDH1A1 and ALDH1A2 activity was determined as previously reported (Beedle M T, Stevison F, Zhong G, Topping T, Hogarth C, Isoherranen N, Griswold M D. Sources of All-Trans Retinal Oxidation Independent of the Aldehyde Dehydrogenase 1A Isozymes Exist in the Postnatal Testis. Biol Reprod. 2018 Sep. 21. doi: 10.1093/biolre/ioy200). Briefly, purified enzymes were incubated in a buffer containing 10 mM HEPES buffer (pH 8.0), 150 mM potassium chloride and 2 mM EDTA with 2 mM NAD. Retinoic acid production was determined using HPLC as previously reported (Amory J K, Muller C H, Shimshoni A J, Isoherranen N, Paik J, Moreb J S, Amory D W, Evanoff R, Goldstein A S, Griswold M D. Suppression of spermatogenesis by bisdichloroacetyldiamines is mediated by inhibition of testicular retinoic acid biosynthesis. Journal of Andrology 2011; 32(1):111-119). Inhibitors were diluted in DMSO and added to the reactions. […] For initial screening of inhibitors for ALDH1A2, 1 μg ALDH1A2, 5 μM all-trans-retinal and 5 μM inhibitors were incubated for 15 min at 37° C. […] For this purpose, 0.5 μg ALDH1A2 and […] were incubated for 5 minutes at 37° C. with varying concentrations of inhibitors. To determine specificity toward ALDH1A2, the IC50 for […]

What is called IC50 is the midpoint of a concentration-inhibition curve. Higher therefore signals weaker potency in that assay. For the molecule `COC(=O)c1ccc(-c2nn(-c3ccccc3)cc2C=O)cc1` [Cmpd 33], the half-inhibitory concentration (IC50) on ALDH2 came to 0.077 µM; against ALDH1A2 it was 0.198 µM.
Regarding `COc1cccc(NC(=O)c2cn(-c3ccccc3)nc2-c2ccc([N+](=O)[O-])cc2)c1` [Compound 103, N-(3-Methoxyphenyl)-3-(4-nitrophenyl)-1-phenyl-1H-pyrazole-4-carboxamide], the IC50 against ALDH2 was determined as 313 µM; against ALDH1A2, 0.62 µM.
On to `O=C(Nc1cccc(F)c1)c1cn(-c2ccccc2)nc1-c1ccc([N+](=O)[O-])cc1` [Compound 106, N-(3-fluorophenyl)-3-(4-nitrophenyl)-1-phenyl-1H-pyrazole-4-carboxamide], for which the IC50 against ALDH2 worked out at 146 µM; on ALDH1A2, 0.07 µM.
The like results for `O=C(Nc1ccccc1C(F)(F)F)c1cn(-c2ccccc2)nc1-c1ccc([N+](=O)[O-])cc1` [Compound 150, 3-(4-Nitrophenyl)-1-phenyl-N-[2-(trifluoromethyl)phenyl]-1H-pyrazole-4-carboxamide] were, in that order, 13 µM and 0.17 µM.
For `O=C(Nc1cccc(C(F)(F)F)c1)c1cn(-c2ccccc2)nc1-c1ccc([N+](=O)[O-])cc1` [Compound 151, 3-(4-Nitrophenyl)-1-phenyl-N-[3-(trifluoromethyl)phenyl]-1H-pyrazole-4-carboxamide], the values for the IC50 against ALDH2 and against ALDH1A2 were 24.6 µM and 0.822 µM, respectively.
As to `O=C(Nc1ccccc1O)c1cn(-c2ccccc2)nc1-c1ccc([N+](=O)[O-])cc1` [Compound 165, N-(2-Hydroxyphenyl)-3-(4-nitrophenyl)-1-phenyl-1H-pyrazole-4-carboxamide], the IC50 at ALDH2 is 23.3 µM; against ALDH1A2, 0.211 µM.
Taken in the same sequence, the figures for `O=C(Nc1cccc(O)c1)c1cn(-c2ccccc2)nc1-c1ccc([N+](=O)[O-])cc1` [Compound 166, N-(3-Hydroxyphenyl)-3-(4-nitrophenyl)-1-phenyl-1H-pyrazole-4-carboxamide] were 95.2 µM and 0.779 µM.
Taken in the same sequence, the figures for `O=C(Nc1ccc(O)cc1)c1cn(-c2ccccc2)nc1-c1ccc([N+](=O)[O-])cc1` [Compound 167, N-(4-Hydroxyphenyl)-3-(4-nitrophenyl)-1-phenyl-1H-pyrazole-4-carboxamide] were 16.9 µM and 0.397 µM.
`Nc1cccc(NC(=O)c2cn(-c3ccccc3)nc2-c2ccc([N+](=O)[O-])cc2)c1` [Compound 173, N-(3-Aminophenyl)-3-(4-nitrophenyl)-1-phenyl-1H-pyrazole-4-carboxamide]: the results for the IC50 against ALDH2 and at ALDH1A2 were 73.7 µM and 0.383 µM, respectively.
Taken in the same sequence, the figures for `CS(=O)(=O)c1ccc(-c2nn(-c3ccccc3)cc2C(=O)Nc2ccc(F)c(F)c2)cc1` [Compound 207, 3-(4-(Methylsulfonyl)phenyl)-N-(3,4-difluorophenyl)-1-phenyl-1H-pyrazole-4-carboxamide] were 10.3 µM and 0.01 µM.
The like results for `CS(=O)(=O)c1ccc(-c2nn(-c3ccccc3)cc2C(=O)Nc2cccc(C(F)(F)F)c2)cc1` [Compound 208, 3-(4-(Methylsulfonyl)phenyl)-N-(3-trifluoromethylphenyl)-1-phenyl-1H-pyrazole-4-carboxamide] were, in that order, 145 µM and 0.01 µM.
Regarding `CC(=O)Oc1ccccc1NC(=O)c1cn(-c2ccccc2)nc1-c1ccc(S(C)(=O)=O)cc1` [Compound 210, N-(2-Acetoxyphenyl)-3-[4-(methylsulfonyl)phenyl]-1-phenyl-1H-pyrazole-4-carboxamide], the IC50 on ALDH2 was 112 µM; at ALDH1A2, 0.032 µM.
As to `COC(=O)c1cn(-c2ccccc2)nc1-c1ccc([N+](=O)[O-])cc1` [Compound 229, Methyl 3-(4-nitrophenyl)-1-phenyl-1H-pyrazole-4-carboxylate], the IC50 on ALDH2 is 15.2 µM; at ALDH1A2, 0.217 µM.
Molecule `CS(=O)(=O)c1ccc(-c2nn(-c3ccccc3F)cc2C(=O)Nc2ccccc2O)cc1` [Compound 238, N-(2-Hydroxphenyl)-3-[4-(methylsulfonyl)phenyl]-1-(2-fluoropheny)-1H-pyrazole-4-carboxamide] displayed an IC50 at ALDH2 of 40.9 µM.
Take `CS(=O)(=O)c1ccc(-c2nn(-c3cccc(Cl)c3)cc2C(=O)Nc2cccc(F)c2)cc1` [Compound 239, N-(3-Fluorophenyl)-3-[4-(methylsulfonyl)phenyl]-1-(3-chloropheny)-1H-pyrazole-4-carboxamide]: the IC50 worked out at 9.6 µM at ALDH2 and 0.271 µM at ALDH1A2.
The like results for `CS(=O)(=O)c1ccc(-c2nn(-c3cccc(F)c3)cc2C(=O)Nc2ccccc2O)cc1` [Compound 243, N-(2-Hydroxyphenyl)-3-[4-(methylsulfonyl)phenyl]-1-(3-fluorophenyl)-1H-pyrazole-4-carboxamide] were, in that order, 62 µM and 0.076 µM.
`CS(=O)(=O)c1ccc(-c2nn(-c3cccc(F)c3)cc2C(=O)Nc2ccc(OC(F)(F)F)cc2)cc1` [Compound 246, N-(4-Trifluoromethoxyphenyl)-3-[4-(methylsulfonyl)phenyl]-1-(3-fluorophenyl)-1H-pyrazole-4-carboxamide]: the concentration for half-maximal inhibition (IC50) on ALDH2 was determined as 61.2 µM; against ALDH1A2 it was 0.119 µM.
The like results for `CS(=O)(=O)c1ccc(-c2nn(-c3cccc(F)c3)cc2C(=O)Nc2ccc(C#N)cc2)cc1` [Compound 249, N-(4-Cyanophenyl)-3-[4-(methylsulfonyl)phenyl]-1-(3-fluorophenyl)-1H-pyrazole-4-carboxamide] were, in that order, 35.9 µM and 0.038 µM.
